Data published in ChEMBL document CHEMBL1122995, “1-[3-(Diarylamino)propyl]piperidines and related compounds, potential antipsychotic agents with low cataleptogenic profiles” (J Med Chem, 1985).
Where “and” joins values, the source holds several entries; their conditions need not be identical. Equal entries are not always repeated.

Key:
Mus musculus = assay: Lowest active dose for the inhibition of locomotor screen falloff test, ip; format: functional
Dopamine receptor = assay: Inhibition of [3H]haloperidol binding to dopamine receptors in rat striatal membranes.
Rattus norvegicus [1] = species: Rattus norvegicus; assay: Effective dose determined by catalepsy test in rat; format: functional
Rattus norvegicus [2] = species: Rattus norvegicus; assay: Effective dose determined by suppression of high base-line self-stimulation in adult male hooded rats; format: functional
[3] = molecular target: Dopamine receptor (Rattus norvegicus) (UniProt P25115+P19020+P30729+P18901+P61169); assay: Inhibition of [3H]haloperidol binding to dopamine receptors in rat striatal membranes at 10e-8 M.; format: cell membranes; conditions: Membrane
Rattus norvegicus [4] = species: Rattus norvegicus; assay: Effective dose against [3H]haloperidol binding in rat striatal membranes; format: functional; conditions: Striatum, Membrane

| Compound | LAD (Mus musculus) | IC50 (Dopamine receptor) [nM] | ED50 (Rattus norvegicus [1]) [mg/kg] | ED50 (Rattus norvegicus [2]) [mg/kg] | inhibition [3] [%] | ED50 (Rattus norvegicus [4]) [nM] |
| --- | --- | --- | --- | --- | --- | --- |
| Fc1ccc(N(CCCN2CCN(c3ccccc3)CC2)c2ccc(F)cc2)cc1 | 100 mg/kg |  |  |  |  |  |
| Oc1nc2ccccc2n1C1CCN(CCCN(c2ccccc2)c2cccc(Cl)c2)CC1 | >100 mg/kg |  |  |  |  |  |
| O=c1[nH]c2ccccc2n1C1CCN(CCCC(c2ccc(F)cc2)c2ccc(F)cc2)CC1 [PIMOZIDE] | <10 mg/kg and 30 mg/kg |  |  |  |  |  |
| O=C1NCN(c2ccccc2)C12CCN(CCCCN(c1ccc(F)cc1)c1ccc(F)cc1)CC2 | >100 mg/kg |  |  |  |  |  |
| COc1ccccc1N1CCN(CCCN(c2ccc(F)cc2)c2ccc(F)cc2)CC1 | 30 mg/kg | 13 | 160 | 5.5 |  |  |
| O=C1NCN(c2ccccc2)C12CCN(CCN(c1ccc(F)cc1)c1ccc(F)cc1)CC2 | 100 mg/kg |  |  |  |  |  |
| O=C1NCN(c2ccccc2)C12CCN(CCCN(c1ccc(F)cc1)c1cccc(Cl)c1)CC2 | 30 mg/kg |  | 289 | 12.7 |  |  |
| O=C1NCN(c2ccccc2)C12CCN(CCCC(c1ccc(F)cc1)c1ccc(F)cc1)CC2 | <10 mg/kg |  | 10.8 | 1.28 |  |  |
| O=C1NCN(c2ccccc2)C12CCN(CCCN(c1ccc(F)cc1)c1ccc(F)cc1)CC2 | 5 mg/kg | 0.61 | 81.2 | 1.65 |  |  |
| O=[N+]([O-])c1ccc(N(CCCN2CCC(n3c(O)nc4ccccc43)CC2)c2ccccc2)cc1 | 100 mg/kg |  |  |  | 17 |  |
| CN1CCN(C2=Nc3cc(Cl)ccc3Nc3ccccc32)CC1 [CLOZAPINE] | 10 mg/kg |  | 133 | 14.3 |  |  |
| Oc1nc2cc(Cl)c(Cl)cc2n1C1CCN(CCCN(c2ccc(F)cc2)c2ccc(F)cc2)CC1 | >100 mg/kg |  |  |  |  |  |
| Oc1nc2ccccc2n1C1CCN(CCCN(c2ccccc2)c2ccccc2)CC1 | 30 mg/kg |  |  | 13.2 |  |  |
| OC1(c2ccc(Cl)cc2)CCN(CCCN(c2ccc(F)cc2)c2ccc(F)cc2)CC1 | 30 mg/kg |  |  | 4.42 |  |  |
| OCCN1CCN(CCCN(c2ccc(F)cc2)c2ccc(F)cc2)CC1 | >100 mg/kg |  |  |  |  |  |
| Oc1nc2ccccc2n1C1=CCN(CCCN(c2ccc(F)cc2)c2ccc(F)cc2)CC1 | 30 mg/kg |  | 105 | 5.55 |  | 0.32 |
| Cc1cc2nc(O)n(C3CCN(CCCN(c4ccc(F)cc4)c4ccc(F)cc4)CC3)c2cc1C | 30 mg/kg |  |  | > 16 |  |  |
| O=C1NCN(c2ccccc2)C12CCN(CCCN(c1ccccc1)c1ccc(F)cc1)CC2 | 30 mg/kg |  | 156 | 11.7 |  |  |
| Oc1nc2ccccc2n1C1CCN(CCCN(c2ccc(F)cc2)c2ccccc2F)CC1 | 30 mg/kg |  | 156 | 11.3 | 92 |  |
| Oc1nc2cc(Cl)ccc2n1C1CCN(CCCN(c2ccc(F)cc2)c2ccc(F)cc2)CC1 | >100 mg/kg |  |  |  |  |  |
| O=C(c1ccc(Cl)cc1)C1CCN(CCCN(c2ccc(F)cc2)c2ccc(F)cc2)CC1 | >100 mg/kg |  |  |  |  |  |
| Oc1nc2ccccc2n1C1CCN(CCCN(c2ccccc2)c2ccc(F)cc2)CC1 | 30 mg/kg |  | 76 | 8.37 | 84 |  |
| Fc1ccc(N(CCCN2CCC(n3c(S)nc4ccccc43)CC2)c2ccc(F)cc2)cc1 | >100 mg/kg |  |  |  |  |  |
